Test system: antibodies raised to Immunogens I & II
Assay: Competitive ELISA, selected molecules as potential cross-reactants (Table 3)
Assay type: binding, sheep
Procedure: (a) The wells of an enhanced binding 96 well polystyrene microtiter plate were coated with the Ig fraction of the antiserum raised to Immunogen I (Hapten A-BTG—example 5) and diluted in 10 mM Tris, pH8.5 (125 μl/well). The appropriate antibody coating concentration was determined using standard ELISA checkerboard techniques. The plate was incubated for 2 hours at 37° C., washed 4 times over a 10-minute period with Tris buffered saline containing Tween 20 (TBST) and tapped dry. Standard solutions of JWH synthetic cannabinoids, metabolites and selected molecules were prepared in TBST and 50 μl of each was added to the appropriate wells. 75 μl of conjugate (Hapten A-HRP) diluted in Tris buffer containing EDTA, D-mannitol, sucrose, thimerosal and BSA, was added to each of the wells. The appropriate dilution of conjugate was also determined using standard ELISA checkerboard techniques. The plate was incubated at 25° C. for 1 hour. The excess unbound conjugate was removed by washing 6 times over a 10-minute period with TBST and tapped dry. 125 μl of tetramethylbenzedine (TMB) substrate solution was added to each well of the plate that was then incubated for 15-20 minutes in the dark at room temperature. The reaction was terminated by addition of 125 μl of 0.2M sulphuric acid to each well. The absorbance was then measured at 450 nm using a microtiter plate reader.
Employing each series of standards, calibration curves were generated and these were used to determine the specificity of the immunoassay for the JWH synthetic cannabinoids, metabolites and selected molecules. The results of this study are presented in Tables 1 to 3, cross-reactivity being calculated according to the following formula: % CR=IC50,JWH-018/IC50,CR×100
Where % CR is the percentage cross-reactivity, IC50, JWH-018 is the concentration of JWH-018 that causes 50% displacement of signal and IC50, CR is the concentration of JWH synthetic cannabinoid/metabolite/selected molecule that causes 50% displacement of signal.
The antibody produced from Immunogen I is able to bind to JWH molecules known to be incorporated in herbal therapeutics such as JWH-018, proposed metabolites such as M2 (Wintermeyer et al 2010), and potential metabolites such as M5. The detection and quantification of other JWH SSCs is also provided for, the antibodies of the invention bind a range of molecules comprising the 3-(1-naphthoyl)-1H-indole structure (e.g. JWH-071, JWH-398, M1 etc.). […] The concept of using the antibodies of the invention to detect and determine future stealth synthetic cannabinoids is highlighted in Table 4; the 5-fluoropentyl derivative known to bind the CB 1 receptor, but which as of yet has not been detected in herbal therapeutics or similar substances, binds to antibodies raised from Immunogens I and II.

SMILES	binding / cross-reaction with antibodies raised from Immunogens I and II (in words)
O=C(O)CCCCn1cc(C(=O)c2cccc3ccccc23)c2ccccc21 [JWH-018 N-pentanoic acid metabolite]	bind
O=C(c1cccc2ccccc12)c1cn(CCCCCF)c2ccccc12 [AM-2201, 1-(5-Fluoropentyl)indol-3-yl (1-naphthyl) methanone]	binds
CCCCCn1cc(C(=O)c2ccc(Cl)c3ccccc23)c2ccccc21 [JWH-398]	bind

— patent US9434687B2, “Detection of synthetic cannabinoids” (priority 2011, dated 2016)
